In US9145392B2, “Imidazole amines as modulators of kinase activity” (Merck Patent GmbH, priority 2011, dated 2015):

Assays:
[1] = target: His-AKT (Full Length) (Homo sapiens (Human), UniProt P31749); assay: AKT enzyme assay; format: biochemical; details: read-out: IC50 AKT
[2] = target: P70S6K (T412E mutant) (Homo sapiens (Human), UniProt P23443, T412E); assay: P70S6K enzyme assay; format: biochemical; details: read-out: IC50 p70S6K
How it was run: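 Read-out is the substrate/phosphopeptide ratio from mobility-shift electrophoresis on a LabChip 3000.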

Chain of His-AKT (Full Length) (P31749 whole entry): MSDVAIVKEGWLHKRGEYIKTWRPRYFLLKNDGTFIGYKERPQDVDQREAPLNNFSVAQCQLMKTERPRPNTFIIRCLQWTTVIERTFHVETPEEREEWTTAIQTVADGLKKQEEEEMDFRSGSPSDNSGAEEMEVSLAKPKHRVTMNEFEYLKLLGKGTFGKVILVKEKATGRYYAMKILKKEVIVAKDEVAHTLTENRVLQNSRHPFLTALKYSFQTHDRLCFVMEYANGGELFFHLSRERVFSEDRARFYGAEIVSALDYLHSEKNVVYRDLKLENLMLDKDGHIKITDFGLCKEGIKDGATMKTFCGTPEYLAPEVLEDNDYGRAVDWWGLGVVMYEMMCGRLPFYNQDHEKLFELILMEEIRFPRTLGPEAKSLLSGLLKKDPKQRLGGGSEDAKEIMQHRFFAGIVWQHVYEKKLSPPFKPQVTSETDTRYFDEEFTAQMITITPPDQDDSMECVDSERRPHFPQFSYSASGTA
Chain of P70S6K (T412E mutant) (P23443 whole entry T412E): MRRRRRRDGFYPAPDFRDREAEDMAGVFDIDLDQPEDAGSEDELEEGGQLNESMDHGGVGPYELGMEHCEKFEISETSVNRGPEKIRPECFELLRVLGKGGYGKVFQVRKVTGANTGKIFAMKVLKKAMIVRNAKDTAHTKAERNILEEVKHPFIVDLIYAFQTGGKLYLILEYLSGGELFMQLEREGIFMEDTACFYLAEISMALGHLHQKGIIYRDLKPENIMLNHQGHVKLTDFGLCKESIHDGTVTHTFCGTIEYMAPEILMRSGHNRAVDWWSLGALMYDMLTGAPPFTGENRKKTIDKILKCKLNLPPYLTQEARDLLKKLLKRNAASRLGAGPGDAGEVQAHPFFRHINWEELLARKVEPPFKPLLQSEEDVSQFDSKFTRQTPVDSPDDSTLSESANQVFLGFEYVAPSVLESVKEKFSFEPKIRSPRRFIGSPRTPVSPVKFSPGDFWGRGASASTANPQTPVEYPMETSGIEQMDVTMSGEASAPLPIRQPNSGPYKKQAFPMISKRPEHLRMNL

IC50 [1] | IC50 [2] | Structure (SMILES)
15 nM | 1.5 nM | NCCn1cc(-c2ccc(F)c(C(F)(F)F)c2)nc1C1CCN(c2ncnc(N)c2C(N)=O)CC1 [Compound 159, 4-amino-6-(4-(1-(2-aminoethyl)-4-(4-fluoro-3-(trifluoromethyl)phenyl)-1H-imidazol-2-yl)piperidin-1-yl)pyrimidine-5-carboxamide]
7.6 nM | 3.2 nM | CCc1c(N)ncnc1N1CCC(c2nc(-c3ccc(F)c(C(F)(F)F)c3)cn2CCN2CCCC2)CC1 [Compound 208]
160 nM | 0.9 nM | N#Cc1c(N)ncnc1N1CCC(c2nc(-c3ccc(F)c(C(F)(F)F)c3)cn2C2CCNCC2)CC1 [Compound 155, 4-amino-6-(4-(4-(4-fluoro-3-(trifluoromethyl)phenyl)-1-(piperidin-4-yl)-1H-imidazol-2-yl)piperidin-1-yl)pyrimidine-5-carbonitrile]
740 nM | 2.5 nM | COC/C=C/c1c(N)ncnc1N1CCC(c2nc(-c3ccc(F)c(C(F)(F)F)c3)cn2C)CC1 [Compound 54, 6-{4-[4-(4-Fluoro-3-trifluoromethyl-phenyl)-1-methyl-1H-imidazol-2-yl]-piperidin-1-yl}-5-((E)-3-methoxy-propenyl)-pyrimidin-4-ylamine]
2.9 nM | 1.8 nM | N#Cc1c(N)ncnc1N1CCC(c2nc(-c3ccc(F)c(C(F)(F)F)c3)cn2CC2CCCN2)CC1 (stereo not drawn) [Compound 147, 4-amino-6-(4-(4-(4-fluoro-3-(trifluoromethyl)phenyl)-1-(pyrrolidin-2-ylmethyl)-1H-imidazol-2-yl)piperidin-1-yl)pyrimidine-5-carbonitrile]
6.9 nM | 3 nM | Nc1ncnc(N2CCC(c3nc(-c4ccc(F)c(C(F)(F)F)c4)cn3CCN3CCC3)CC2)c1-c1cn[nH]c1 [Compound 98, 6-(4-(1-(2-(azetidin-1-yl)ethyl)-4-(4-fluoro-3-(trifluoromethyl)phenyl)-1H-imidazol-2-yl)piperidin-1-yl)-5-(1H-pyrazol-4-yl)pyrimidin-4-amine]
81 nM | 4.9 nM | CN1CC(Cn2cc(-c3ccc(F)c(C(F)(F)F)c3)nc2C2CCN(c3ncnc(N)c3C(N)=O)CC2)C1 [Compound 156, 4-amino-6-(4-(4-(4-fluoro-3-(trifluoromethyl)phenyl)-1-((1-methylazetidin-3-yl)methyl)-1H-imidazol-2-yl)piperidin-1-yl)pyrimidine-5-carboxamide]
13 nM | 1.3 nM | Cc1ccc(-c2cn(CCN3CCC3)c(C3CCN(c4ncnc(N)c4C#N)CC3)n2)cc1Cl [Compound 322]
12 nM | 3.7 nM | CCc1c(N)ncnc1N1CCC(c2nc(-c3ccc(F)c(C(F)(F)F)c3)cn2CCN(C)C)CC1 [Compound 82, 6-(4-(1-(2-(Dimethylamino)ethyl)-4-(4-fluoro-3-(trifluoromethyl)phenyl)-1H-imidazol-2-yl)piperidin-1-yl)-5-ethylpyrimidin-4-amine]
31 nM | 3.8 nM | N#Cc1c(N)ncnc1N1CCC(c2nc(-c3ccc(F)c(C(F)(F)F)c3)cn2C[C@@H]2CCN2)CC1 [Compound 146, (S)-4-amino-6-(4-(1-(azetidin-2-ylmethyl)-4-(4-fluoro-3-(trifluoromethyl)phenyl)-1H-imidazol-2-yl)piperidin-1-yl)pyrimidine-5-carbonitrile]
11 nM | 3.5 nM | NC(=O)c1c(N)ncnc1N1CCC(c2nc(-c3ccc(F)c(C(F)(F)F)c3)cn2CCN2CCCCC2)CC1 [Compound 337]
2.3 nM | 1.9 nM | N#Cc1c(N)ncnc1N1CCC(c2nc(-c3ccc(F)c(C(F)(F)F)c3)cn2CCN2CCCCC2)CC1 [Compound 312]

Continued, compound first:

Structure (SMILES) | IC50 [1] | IC50 [2]
CCc1c(N)ncnc1N1CCC(c2nc(-c3cccc(C(F)(F)F)c3)cn2CCN2CCCC2)CC1 [Compound 272] | 9.6 nM | 3.5 nM
NC(=O)c1c(N)ncnc1N1CCC(c2nc(-c3ccnc(C(F)(F)F)c3)cn2CCN2CCC2)CC1 [Compound 128] | 90 nM | 5.5 nM
Cc1cc(-c2cn(CCN(C)C)c(C3CCN(c4ncnc(N)c4-c4cn[nH]c4)CC3)n2)ccc1F [Compound 163, 6-(4-(1-(2-(dimethylamino)ethyl)-4-(4-fluoro-3-methylphenyl)-1H-imidazol-2-yl)piperidin-1-yl)-5-(1H-pyrazol-4-yl)pyrimidin-4-amine] | 4.8 nM | 0.73 nM
Cc1ccc(-c2c(N)ncnc2N2CCC(c3nc(-c4ccc(F)c(C(F)(F)F)c4)cn3C)CC2)cc1 [Compound 13, 6-{4-[4-(4-Fluoro-3-trifluoromethyl-phenyl)-1-methyl-1H-imidazol-2-yl]-piperidin-1-yl}-5-p-tolyl-pyrimidin-4-ylamine] | 8300 nM | 7.3 nM
CCOCCc1c(N)ncnc1N1CCC(c2nc(-c3ccc(F)c(C(F)(F)F)c3)cn2CCN(C)C)CC1 [Compound 84, 6-(4-(1-(2-(Dimethylamino)ethyl)-4-(4-fluoro-3-(trifluoromethyl)phenyl)-1H-imidazol-2-yl)piperidin-1-yl)-5-(2-ethoxyethyl)pyrimidin-4-amine] | 340 nM | 5.2 nM
Cc1ccc(-c2cn(CCN3CCC3)c(C3CCN(c4ncnc(N)c4C(N)=O)CC3)n2)cc1F [Compound 344] | 2400 nM | 25 nM
Cn1cc(-c2ccc(F)c(C(F)(F)F)c2)nc1C1CCN(c2ncnc(N)c2-c2ccc(CO)cc2)CC1 [Compound 14, [4-(4-Amino-6-{4-[4-(4-fluoro-3-trifluoromethyl-phenyl)-1-methyl-1H-imidazol-2-yl]-piperidin-1-yl}-pyrimidin-5-yl)-phenyl]-methanol] | 250 nM | 1.9 nM
Nc1ncnc(N2CCC(c3nc(-c4ccc(F)c(C(F)(F)F)c4)cn3CCN3CCCC3)CC2)c1-c1ccccc1F [Compound 58] | 75 nM | 3.7 nM
CC(C)c1cc(-c2cn(CCN3CCC3)c(C3CCN(c4ncnc(N)c4C(N)=O)CC3)n2)ccn1 [Compound 332] | 37 nM | 3.8 nM
C=Cc1c(N)ncnc1N1CCC(c2nc(-c3ccc(F)cc3)cn2CCN2CCCC2)CC1 [Compound 241] | 16 nM | 2.9 nM
CCc1cc(-c2cn(CCN3CCC3)c(C3CCN(c4ncnc(N)c4C#N)CC3)n2)ccn1 [Compound 318] | 15 nM | 1.4 nM
COc1ccc(-c2cn(CCN3CCC3)c(C3CCN(c4ncnc(N)c4C(N)=O)CC3)n2)cc1F [Compound 345] | 13000 nM | 100 nM
N#Cc1c(N)ncnc1N1CCC(c2nc(C3CCCCC3)cn2CCN2CCC2)CC1 [Compound 77, 4-Amino-6-{4-[1-(2-azetidin-1-yl-ethyl)-4-cyclohexyl-1H-imidazol-2-yl]-piperidin-1-yl}-pyrimidine-5-carbonitrile] | 76 nM | 6 nM
CCc1c(N)ncnc1N1CCC(c2nc(-c3ccc(F)cc3)cn2CCN2CC(F)C2)CC1 [Compound 200, 5-Ethyl-6-{4-[1-[2-(3-fluoro-azetidin-1-yl)-ethyl]-4-(4-fluoro-phenyl)-1H-imidazol-2-yl]-piperidin-1-yl}-pyrimidin-4-ylamine] | 640 nM | 21 nM
Nc1ncnc(N2CCC(c3nc(-c4cccc(C(F)(F)F)c4)c[nH]3)CC2)c1Br [Compound 3, 5-Bromo-6-{4-[4-(3-trifluoromethyl-phenyl)-1H-imidazol-2-yl]-piperidin-1-yl}-pyrimidin-4-ylamine] | 1700 nM | 6.2 nM
